Assay results: PubChem BioAssay (NCI)
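Five compound concentrations were applied to cells in 96-well plates for 48 hours; endpoints were derived by simple linear interpolation of the resulting dose-response curve. GI50 marks 50% less growth. TGI: concentration producing complete growth inhibition.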

Key:
Assay in all cases: NCI-60 cell line screen, 48 h
HT29 colon = test system: HT29 colon
HCC-2998 colon = test system: HCC-2998 colon
NCI/ADR-RES ovarian = test system: NCI/ADR-RES ovarian
SNB-75 CNS = test system: SNB-75 CNS
SK-MEL-5 melanoma = test system: SK-MEL-5 melanoma
U251 CNS = test system: U251 CNS
EKVX NSCLC = test system: EKVX NSCLC
MOLT-4 leukemia = test system: MOLT-4 leukemia
CCRF-CEM leukemia = test system: CCRF-CEM leukemia
OVCAR-5 ovarian = test system: OVCAR-5 ovarian

SMILES	GI50 (HT29 colon) [µM]	TGI (HT29 colon) [µM]	GI50 (HCC-2998 colon) [µM]	TGI (HCC-2998 colon) [µM]	GI50 (NCI/ADR-RES ovarian) [µM]	TGI (NCI/ADR-RES ovarian) [µM]	GI50 (SNB-75 CNS) [µM]	TGI (SNB-75 CNS) [µM]	GI50 (SK-MEL-5 melanoma) [µM]	TGI (SK-MEL-5 melanoma) [µM]	GI50 (U251 CNS) [µM]	TGI (U251 CNS) [µM]	GI50 (EKVX NSCLC) [µM]	TGI (EKVX NSCLC) [µM]	GI50 (MOLT-4 leukemia) [µM]	TGI (MOLT-4 leukemia) [µM]	TGI (CCRF-CEM leukemia) [µM]	TGI (OVCAR-5 ovarian) [µM]	GI50 (CCRF-CEM leukemia) [µM]	GI50 (OVCAR-5 ovarian) [µM]
O=C(c1ccccc1)c1nn(-c2ccccc2)c2nc3nc(-c4ccccc4)cc(=O)n3nc12	24.7	64.2	32.6	60.2	26.2	74.5	36.1	> 100	13.6	27.1	32.6	> 100	22.2	58.2	21.8	49.3				
CCCCS(=O)CC(CO)NC(=O)/C=C/c1c(C)[nH]c(=O)[nH]c1=O (stereo not given)		122		30		93.2		30		21.5		26.7		43		50	51	89.8		
C[C@]12CCc3sc(-c4cccc(F)c4)nc3C1=CC[C@@H]1[C@@H]2CC[C@]2(C)C(=O)CC[C@@H]12	2.69	> 100	3.19	> 100	3.41	57.5	3.43	> 100	4.05	16.9	2	13.6	4.79	87.2	1.69	7.89	9.58	18.5	2.45	2.68
O=C1CCCN1CCCN=c1cc2n(-c3ccc(Cl)cc3)c3ccccc3nc-2cc1Nc1ccc(Cl)cc1		13		18.1		42.1		97.5		19		54.2		28.1		27	50.3	37.3		
Cc1c(N=NN(C)C)cc[n+]([O-])c1C		> 100		> 100		> 100		> 100		> 100		> 100		> 100		> 100	> 100	> 100		
Cc1cc2c(C(C)C)c(O)c(O)c(C=Nc3ccccc3)c2c(O)c1-c1c(C)cc2c(C(C)C)c(O)c(O)c(C=Nc3ccccc3)c2c1O		> 100		> 100				> 100						> 100		> 100	> 100	> 100		
CC(C)[C@](O)(C(=O)OCC1=CCN2CC[C@@H](O)[C@@H]12)[C@H](C)O		> 375		> 375		> 375		> 375		> 80.8		> 375		> 375		> 375	> 375	> 375		
CCc1c(C)c2ccc(OCC(=O)N=Nc3c(O)[nH]c4ccccc34)c(C)c2oc1=O					> 33.3	> 33.3			1.06	> 33.3			> 33.3	> 33.3	1.15	> 33.3	> 33.3	> 33.3	1.34	> 33.3
